Values quoted from earlier work in patent US20040180086A1 (priority 2002, published 2004).

Test system: decarboxylation of peripheral levodopa
Conditions: carbidopa administered in combination with levodopa

For `C[C@@](Cc1ccc(O)c(O)c1)(NN)C(=O)O` [Carbidopa, S-α-hydrazino-3,4-dihydroxy-α-methylbenzenepropanoic acid monohydrate], the “reduction of the amount of levodopa required to produce a given response” value is listed as “about 75%”.
